For data set [1], the target named is T1, Mineralocorticoid receptor (Homo sapiens, UniProt P08235).
T1 sequence (P08235 whole entry): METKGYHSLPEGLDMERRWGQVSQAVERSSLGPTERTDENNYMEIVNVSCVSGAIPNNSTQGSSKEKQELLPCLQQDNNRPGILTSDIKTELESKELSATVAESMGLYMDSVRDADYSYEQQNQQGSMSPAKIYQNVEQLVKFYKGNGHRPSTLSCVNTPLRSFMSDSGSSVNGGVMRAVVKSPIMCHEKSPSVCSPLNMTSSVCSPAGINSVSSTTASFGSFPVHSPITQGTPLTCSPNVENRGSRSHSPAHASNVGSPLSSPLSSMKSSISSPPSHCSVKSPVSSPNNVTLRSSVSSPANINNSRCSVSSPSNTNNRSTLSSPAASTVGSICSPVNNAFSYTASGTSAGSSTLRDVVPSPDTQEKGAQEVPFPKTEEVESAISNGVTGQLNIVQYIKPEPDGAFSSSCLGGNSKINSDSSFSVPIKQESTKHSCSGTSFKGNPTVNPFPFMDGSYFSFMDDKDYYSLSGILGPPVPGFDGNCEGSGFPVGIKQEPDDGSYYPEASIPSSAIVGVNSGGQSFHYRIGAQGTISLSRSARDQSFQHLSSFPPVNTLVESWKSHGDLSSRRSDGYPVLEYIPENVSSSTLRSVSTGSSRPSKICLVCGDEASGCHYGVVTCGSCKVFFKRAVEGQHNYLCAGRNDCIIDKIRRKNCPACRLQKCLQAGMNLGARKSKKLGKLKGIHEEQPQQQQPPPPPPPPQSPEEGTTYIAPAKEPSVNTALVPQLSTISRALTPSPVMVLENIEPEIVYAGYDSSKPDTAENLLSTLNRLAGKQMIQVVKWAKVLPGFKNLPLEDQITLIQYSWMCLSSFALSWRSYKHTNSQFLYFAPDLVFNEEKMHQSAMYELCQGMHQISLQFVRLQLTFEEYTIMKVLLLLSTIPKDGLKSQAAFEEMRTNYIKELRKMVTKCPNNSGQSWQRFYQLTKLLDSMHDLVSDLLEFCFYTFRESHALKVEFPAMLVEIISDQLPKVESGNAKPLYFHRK
Description: Antagonist activity at mineralocorticoid receptor (unknown origin).

Data set [2] addresses T2, Glucocorticoid receptor (Homo sapiens, UniProt P04150).
T2 sequence (P04150 whole entry): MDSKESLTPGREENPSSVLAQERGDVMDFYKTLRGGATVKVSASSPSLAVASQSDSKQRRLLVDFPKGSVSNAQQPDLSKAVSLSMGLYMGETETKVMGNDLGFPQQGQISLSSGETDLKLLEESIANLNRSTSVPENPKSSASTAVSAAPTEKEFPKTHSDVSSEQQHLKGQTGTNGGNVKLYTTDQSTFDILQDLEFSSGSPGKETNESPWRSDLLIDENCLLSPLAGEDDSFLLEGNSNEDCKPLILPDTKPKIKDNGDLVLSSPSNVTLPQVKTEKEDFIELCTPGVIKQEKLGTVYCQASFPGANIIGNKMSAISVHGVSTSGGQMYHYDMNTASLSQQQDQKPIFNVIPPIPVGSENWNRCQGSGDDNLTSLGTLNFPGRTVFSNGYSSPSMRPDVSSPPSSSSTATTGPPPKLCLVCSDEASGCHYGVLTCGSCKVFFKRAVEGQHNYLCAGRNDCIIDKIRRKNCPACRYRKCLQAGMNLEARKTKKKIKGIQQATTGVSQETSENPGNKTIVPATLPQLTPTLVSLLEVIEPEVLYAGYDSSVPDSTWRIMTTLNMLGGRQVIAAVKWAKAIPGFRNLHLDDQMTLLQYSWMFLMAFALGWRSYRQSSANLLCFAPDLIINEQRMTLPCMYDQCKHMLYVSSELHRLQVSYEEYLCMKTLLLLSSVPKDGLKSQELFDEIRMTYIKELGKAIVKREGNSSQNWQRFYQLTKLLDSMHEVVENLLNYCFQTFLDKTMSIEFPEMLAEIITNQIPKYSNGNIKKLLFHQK
Description: Binding affinity to glucocorticoid receptor (unknown origin) by gel filtration assay. Background: Size exclusion chromatography separates by hydrodynamic size, large species first.

Data set [3] in a line: Clearance in Wistar Han rat at 1 mg/kg, iv or 2 mg/kg, po. Type of data set: ADME, organism-based. The conditions noted are these: in vivo.
Data set [4] can be described thus: Half-life in Wistar Han rat at 1 mg/kg, iv or 2 mg/kg, po. The format is ADME, organism-based. The conditions noted are these: in vivo; for half-life: Wistar Han.
Data set [5] is described as follows: Oral bioavailability in Wistar Han rat at 2 mg/kg. Type of data set: ADME, organism-based. To be noted: in vivo.
Data set [6] is filed under the species Homo sapiens. Description: Selectivity ratio of IC50 for glucocorticoid receptor (unknown origin) to IC50 for mineralocorticoid receptor (unknown origin).
A short description of data set [7]: Clearance in Sprague-Dawley rat at 2 mg/kg, iv or 10 mg/kg, po. Type of data set: ADME, organism-based. The conditions noted are these: in vivo.
The nature of data set [8]: Half-life in Sprague-Dawley rat at 2 mg/kg, iv or 10 mg/kg, po. The format is ADME, organism-based. To be noted: in vivo.
A short description of data set [9]: Oral bioavailability in Sprague-Dawley rat at 10 mg/kg. Type of data set: ADME, organism-based. To be noted: in vivo.
The nature of data set [10]: Clearance in Sprague-Dawley rat at 1 mg/kg, iv or 2 mg/kg, po. Type of data set: ADME, organism-based. To be noted: in vivo.
Data set [11] can be described thus: Half-life in Sprague-Dawley rat at 1 mg/kg, iv or 2 mg/kg, po. The format is ADME, organism-based. The conditions noted are these: in vivo.
The nature of data set [12]: Oral bioavailability in Sprague-Dawley rat at 2 mg/kg. The format is ADME, organism-based. To be noted: in vivo.
Data set [13] is described as follows: Metabolic stability in human liver microsomes assessed as parent compound remaining measured at 0.5 hrs. The conditions noted are these: read-out: Stability. The format is ADME, Microsome. In general terms: Microsomes from liver hold many membrane-bound enzymes, among them those of drug oxidation.
Data set [14] concerns the target T1, Mineralocorticoid receptor. Description: Binding affinity to mineralocorticoid receptor (unknown origin).
A short description of data set [15]: Clearance in Wistar Han rat at 2 mg/kg, iv or 10 mg/kg, po. The format is ADME, organism-based. To be noted: in vivo.
A short description of data set [16]: Half-life in Wistar Han rat at 2 mg/kg, iv or 10 mg/kg, po. The format is ADME, organism-based. The conditions noted are these: in vivo.
Data set [17] can be described thus: Oral bioavailability in Wistar Han rat at 10 mg/kg. The format is ADME, organism-based. The conditions noted are these: in vivo.
The nature of data set [18]: Drug metabolism in human liver microsomes assessed as oxidation of electron-rich indole core at 10 uM preincubated for 1 hr followed by NADPH addition by HRMS/MS fragmentation analysis. The format is ADME, Microsome.
A short description of data set [19]: Drug metabolism in rat liver microsomes assessed as oxidation of electron-rich indole core at 10 uM preincubated for 1 hr followed by NADPH addition by HRMS/MS fragmentation analysis. Type of data set: ADME, Microsome.
Data set [20] in a line: Photostability of the compound under UV-irradiation. The format is physicochemical.

Each structure is given as a SMILES string.

As usually defined, the IC50 is the concentration at which inhibition is half-maximal. The low end stands for greater potency in that assay, the high end for weaker potency in that assay. Regarding `CCC(CO)(c1ccc(Cl)cc1)n1ccc2c(NS(C)(=O)=O)cc(Br)cc21` (racemic), the IC50 amounted to 567 nM in data set [1] and 202 nM in [2].

For `CCC(CO)(c1ccc(Cl)cc1)n1ccc2c(NS(C)(=O)=O)cc(C#N)cc21` (racemic), the IC50 in data set [1] came to 22000 nM; in data set [2], 1050 nM.

Turning to `CCC(CC)(c1ccc(Cl)cc1)c1nnc2c(NS(C)(=O)=O)cccn12`, half-maximal inhibition in data set [1] (IC50) required 5940 nM.

A word on the half-life: it is the time needed for the level to fall by half in the phase considered. `CC[C@](CO)(c1ccc(Cl)cc1)n1ccc2c(NS(C)(=O)=O)cccc21`: in [3], the clearance is 41 mL/min/kg. Besides, in [4], the half-life was 1.5 h.

For the molecule `CC[C@@](c1ccc(C(F)(F)F)cc1)(C(C)O)n1ncc2c(NS(C)(=O)=O)cc(F)cc21` (single isomer, unassigned; diastereomer A) [listing 1 of 2 here], the IC50 was 22 nM in data set [1] and 10200 nM in data set [2]. Also, in data set [4], the t1/2 is 1.8 h. The molecule also had a F in [5] of 36%.

Usually bioavailability stands for the share of a dose that reaches the circulation, judged against a reference dose that is usually intravenous. Read a low bioavailability as poor availability. Turning to `CC[C@](CO)(c1ccc(Cl)cc1)n1ncc2c(NS(C)(=O)=O)cccc21`, the IC50 in [1] turned out to be 64 nM; in data set [2] it was 870 nM. Moreover, in [6], the Ratio IC50 stood at 29. The clearance in data set [7] stood at 27 mL/min/kg. Further, the half-life in [8] was 1.9 h. The molecule further had a bioavailability in data set [9] of 59%.

As for `CC[C@@](c1ccc(C(F)(F)F)cc1)(C(C)O)n1ncc2c(NS(C)(=O)=O)cc(F)cc21` (single isomer, unassigned; diastereomer B) [listing 1 of 2 here], in data set [6], the Ratio IC50 is 19.

Turning to `CC[C@@](c1ccc(C(F)(F)F)cc1)(C(C)O)n1ncc2c(NS(C)(=O)=O)cc(F)cc21` (single isomer, unassigned; diastereomer A) [listing 2 of 2 here], the Ratio IC50 in data set [6] came out at 640.

For `CC[C@@](c1ccc(C(F)(F)F)cc1)(C(C)O)n1ncc2c(NS(C)(=O)=O)cccc21` (some centres not stated), the clearance in data set [3] and in data set [10] was 14 mL/min/kg throughout. Moreover, the IC50 in [1] was determined as 20 nM; in data set [2] it was 1640 nM. Also, the half-life in data set [4] and in [11] was 5.7 h each time. Moreover, the bioavailability in data set [5] (Wistar Han) and in [12] was 92% in each case. In addition, the Ratio IC50 in data set [6] stood at 1000. Moreover, the remaining at 0.5 h in data set [13] worked out at 52%.

Regarding `CCC(CC)(c1ccc(Cl)cc1)n1ncc2c(NS(C)(=O)=O)cccc21`, it took 114 nM to reach half-maximal inhibition in data set [1] (IC50).

With `CCC(CC)(c1ccc(Cl)cc1)c1cnc2c(NS(C)(=O)=O)cccn12`, the IC50 in data set [1] amounted to 7690 nM.

Consider `CC[C@](CO)(c1ccc(Cl)cc1)n1ccc2c(NS(C)(=O)=O)cc(F)cc21`, for which the IC50 stood at 116 nM in data set [1], 32 nM in [14] and 111 nM in data set [2]. For the same molecule, the clearance in [15] stood at 34 mL/min/kg. This molecule also showed a half-life in [16] of 1.6 h. Also, the bioavailability in [17] turned out to be 30%. Moreover, in data set [6], the Ratio IC50 turned out to be 3.5.

`CCC(CC)(c1ccc(Cl)cc1)n1ccc2c(NS(C)(=O)=O)cccc21` registered an IC50 in data set [1] of 39 nM.

In the case of `CC[C@](C(=O)NC)(c1ccc(Cl)cc1)n1ccc2c(NS(C)(=O)=O)cccc21`, the Drug metabolism entry in [18] and in data set [19] was “Metabolite_Detected” in each case. Further, the Stability entry in [20] is “Unstable”.

In the case of `CC[C@@](c1ccc(C(F)(F)F)cc1)(C(C)O)n1ncc2c(NS(C)(=O)=O)cc(F)cc21` (single isomer, unassigned; diastereomer B) [listing 2 of 2 here], the figures for the IC50 in data set [1] and in [2] were 41 nM and 4020 nM, respectively. In [4], this molecule returned a t1/2 of 5.2 h. For the same molecule, the F in [5] is recorded as 92%. In addition, in data set [13], the remaining at 0.5 h was determined as 84%.
